The source made the active and inactive calls.
Key:
[1] = NIH3T3 cell viability loss – ATP luminescence, mouse fibroblasts, counter-screen, dose response (AID 2010); type: functional, cell-based;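 note: cells exposed to compound for about 90 hours before reading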
[2] = cells
[3] = Trypanosoma cruzi growth suppression in host cells – NIH3T3 host cells, beta-gal luminescence, confirmation (AID 2044); type: functional, cell-based;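 note: intracellular parasites grown in NIH/3T3 mouse fibroblasts as host cells; luminescent beta-galactosidase reporter signal from transgenic T. cruzi replicating inside host cells; inhibitors lower the luminescence signal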
[4] = target: Mucolipin-3 (Homo sapiens, UniProt Q8TDD5); experiment: Dose response cell-based high-throughput screening assay for agonists of the transient receptor potential channel ML3 (TRPML3). [Related pubchem assays: 1526, 1424, 1448 ]; type: functional
Sequence of Mucolipin-3 (Q8TDD5 whole entry): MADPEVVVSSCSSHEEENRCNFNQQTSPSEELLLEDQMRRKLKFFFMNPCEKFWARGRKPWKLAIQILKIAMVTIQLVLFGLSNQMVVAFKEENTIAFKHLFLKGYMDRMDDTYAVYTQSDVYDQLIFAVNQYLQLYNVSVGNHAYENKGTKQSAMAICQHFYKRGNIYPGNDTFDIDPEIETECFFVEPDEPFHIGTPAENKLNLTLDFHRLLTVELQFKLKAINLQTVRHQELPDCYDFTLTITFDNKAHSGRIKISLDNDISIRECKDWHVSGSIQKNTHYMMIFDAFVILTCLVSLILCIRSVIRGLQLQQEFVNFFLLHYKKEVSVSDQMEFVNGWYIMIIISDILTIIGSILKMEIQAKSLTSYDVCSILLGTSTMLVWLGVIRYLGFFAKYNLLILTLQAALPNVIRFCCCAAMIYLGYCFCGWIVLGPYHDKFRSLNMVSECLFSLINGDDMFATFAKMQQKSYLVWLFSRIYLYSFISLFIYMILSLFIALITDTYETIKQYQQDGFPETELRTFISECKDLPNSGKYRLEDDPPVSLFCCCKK

[5] = target: Ion channel NompC (Danio rerio, UniProt Q7T1G6); experiment: Fluorescence counterscreen assay for TRPML3 agonists: dose response cell-based high-throughput screening assay to identify agonists of the transient receptor potential channel N1 (TRPN1). [Related pubchem assays: 1526, 1424, 1448 ]; type: functional
Sequence of Ion channel NompC (Q7T1G6 whole entry): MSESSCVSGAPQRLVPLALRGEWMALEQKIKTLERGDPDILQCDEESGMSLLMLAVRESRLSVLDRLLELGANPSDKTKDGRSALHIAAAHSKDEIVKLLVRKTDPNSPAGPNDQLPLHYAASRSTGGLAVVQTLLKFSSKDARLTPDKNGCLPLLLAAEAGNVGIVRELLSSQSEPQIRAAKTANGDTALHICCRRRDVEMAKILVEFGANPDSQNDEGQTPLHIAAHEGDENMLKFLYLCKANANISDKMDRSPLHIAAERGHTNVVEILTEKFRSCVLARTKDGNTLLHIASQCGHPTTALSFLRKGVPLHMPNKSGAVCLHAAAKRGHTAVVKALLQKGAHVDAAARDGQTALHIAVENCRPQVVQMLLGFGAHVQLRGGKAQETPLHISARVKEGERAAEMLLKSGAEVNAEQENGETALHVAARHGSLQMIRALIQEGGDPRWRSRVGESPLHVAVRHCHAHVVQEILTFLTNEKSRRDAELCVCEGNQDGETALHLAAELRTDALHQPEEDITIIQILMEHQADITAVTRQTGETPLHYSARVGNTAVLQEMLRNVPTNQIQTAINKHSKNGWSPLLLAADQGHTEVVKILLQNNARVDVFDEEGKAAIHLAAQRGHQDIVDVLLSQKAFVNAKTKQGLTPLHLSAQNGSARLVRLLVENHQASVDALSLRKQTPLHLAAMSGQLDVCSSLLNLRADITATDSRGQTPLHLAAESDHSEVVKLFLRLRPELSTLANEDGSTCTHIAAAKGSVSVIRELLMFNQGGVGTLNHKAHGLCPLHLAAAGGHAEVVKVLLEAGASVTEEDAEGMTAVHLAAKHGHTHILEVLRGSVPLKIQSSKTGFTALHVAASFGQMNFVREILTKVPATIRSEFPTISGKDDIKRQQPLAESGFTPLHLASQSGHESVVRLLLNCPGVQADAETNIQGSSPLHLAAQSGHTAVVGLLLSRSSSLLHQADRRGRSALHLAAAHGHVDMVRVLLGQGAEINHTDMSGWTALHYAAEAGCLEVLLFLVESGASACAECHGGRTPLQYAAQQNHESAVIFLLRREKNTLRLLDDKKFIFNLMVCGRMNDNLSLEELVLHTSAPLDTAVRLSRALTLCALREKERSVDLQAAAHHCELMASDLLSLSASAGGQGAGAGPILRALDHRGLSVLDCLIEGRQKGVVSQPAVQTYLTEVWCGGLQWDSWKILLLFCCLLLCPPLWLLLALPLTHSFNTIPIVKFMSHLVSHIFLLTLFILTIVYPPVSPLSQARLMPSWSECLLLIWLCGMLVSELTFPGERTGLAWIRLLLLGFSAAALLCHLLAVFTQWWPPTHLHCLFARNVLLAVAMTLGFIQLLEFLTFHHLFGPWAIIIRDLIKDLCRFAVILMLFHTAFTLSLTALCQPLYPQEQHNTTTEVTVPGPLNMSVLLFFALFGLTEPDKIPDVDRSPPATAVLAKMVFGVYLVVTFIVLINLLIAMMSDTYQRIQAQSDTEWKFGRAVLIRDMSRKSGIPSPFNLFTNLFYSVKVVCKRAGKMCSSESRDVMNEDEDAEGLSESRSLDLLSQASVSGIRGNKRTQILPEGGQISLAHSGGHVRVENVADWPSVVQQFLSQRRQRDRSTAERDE

[6] = target: T1, Bcl-2-related protein A1 (Mus musculus, UniProt Q07440); type: functional;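 note: confirmatory dose–response counterscreen on Bfl-1, used to check hits from a UBC13 polyubiquitin inhibitor campaign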
T1 sequence (Q07440 whole entry): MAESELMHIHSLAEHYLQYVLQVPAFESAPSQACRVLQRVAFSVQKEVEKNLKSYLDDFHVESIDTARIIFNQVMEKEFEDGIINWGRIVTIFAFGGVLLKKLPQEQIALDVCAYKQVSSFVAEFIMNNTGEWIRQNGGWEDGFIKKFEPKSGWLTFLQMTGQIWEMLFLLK

[7] = viability loss of HPDE-C7K cells – cell-based, fluorescence, HTS, primary screen (AID 431); type: functional; settings: Homo sapiens
[8] = Luminescence Cell-Based Dose Retest to Confirm Inhibitors of Cancer Stem Cells. [Related pubchem assays (depositor defined):AID2717, AID2721]; type: functional; settings: Homo sapiens
[9] = viability of HCT116 lacking mutant beta-catenin – cell-based, human colon tumor, dose response (AID 1045); type: functional;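 note: HCT116 colon tumor cells with beta catenin knocked out; cells exposed to compound for 60 hours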
[10] = viability of PTEN-deleted HCT116 cells – cell-based, HCT116 PTEN knockout, dose response (AID 1047); type: functional;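 note: HCT116 colon tumor cells with PTEN knocked out; cells exposed to compound for 60 hours before readout; potency for loss of cell viability measured by luminescence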
[11] = target: T2, DNA repair protein RAD52 homolog (Homo sapiens, UniProt P43351); type: functional, biochemical
T2 sequence (P43351 whole entry): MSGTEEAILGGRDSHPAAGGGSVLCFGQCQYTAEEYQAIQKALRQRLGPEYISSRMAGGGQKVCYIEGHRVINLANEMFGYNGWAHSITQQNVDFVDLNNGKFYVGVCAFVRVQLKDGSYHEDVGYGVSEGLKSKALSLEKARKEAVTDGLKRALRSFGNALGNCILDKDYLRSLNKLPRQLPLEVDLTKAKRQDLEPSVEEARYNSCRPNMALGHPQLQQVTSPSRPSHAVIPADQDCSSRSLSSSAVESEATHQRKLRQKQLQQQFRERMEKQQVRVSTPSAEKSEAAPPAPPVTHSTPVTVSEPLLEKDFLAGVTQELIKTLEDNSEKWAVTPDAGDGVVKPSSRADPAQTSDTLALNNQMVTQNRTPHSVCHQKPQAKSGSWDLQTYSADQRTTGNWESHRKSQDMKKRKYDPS

[12] = HPDE-C7 pancreatic duct cell viability loss – fluorescence, HTS (AID 430); type: functional, cell-based; settings: Homo sapiens
[13] = target: T3, Ubiquitin-conjugating enzyme E2 N (Homo sapiens, UniProt P61088); type: functional
T3 sequence (P61088 whole entry): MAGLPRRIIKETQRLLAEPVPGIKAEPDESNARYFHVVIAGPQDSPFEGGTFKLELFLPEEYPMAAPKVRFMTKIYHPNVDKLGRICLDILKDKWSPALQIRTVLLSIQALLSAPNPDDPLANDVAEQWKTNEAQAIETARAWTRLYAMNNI

[14] = target: T3, Ubiquitin-conjugating enzyme E2 N; type: functional; remark: listed apart in the source
[15] = target: T4, NADPH oxidase 1 (Homo sapiens, UniProt Q9Y5S8); type: functional, cell-based;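 note: Cell-based assay with luminescence read-out, IC50 derived from inhibitor dose-response curves; intracellular ROS from endogenous NOX1 in intact HT29 colon cancer cells; potency of inhibitors that lower the ROS luminescence signal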
T4 sequence (Q9Y5S8 whole entry): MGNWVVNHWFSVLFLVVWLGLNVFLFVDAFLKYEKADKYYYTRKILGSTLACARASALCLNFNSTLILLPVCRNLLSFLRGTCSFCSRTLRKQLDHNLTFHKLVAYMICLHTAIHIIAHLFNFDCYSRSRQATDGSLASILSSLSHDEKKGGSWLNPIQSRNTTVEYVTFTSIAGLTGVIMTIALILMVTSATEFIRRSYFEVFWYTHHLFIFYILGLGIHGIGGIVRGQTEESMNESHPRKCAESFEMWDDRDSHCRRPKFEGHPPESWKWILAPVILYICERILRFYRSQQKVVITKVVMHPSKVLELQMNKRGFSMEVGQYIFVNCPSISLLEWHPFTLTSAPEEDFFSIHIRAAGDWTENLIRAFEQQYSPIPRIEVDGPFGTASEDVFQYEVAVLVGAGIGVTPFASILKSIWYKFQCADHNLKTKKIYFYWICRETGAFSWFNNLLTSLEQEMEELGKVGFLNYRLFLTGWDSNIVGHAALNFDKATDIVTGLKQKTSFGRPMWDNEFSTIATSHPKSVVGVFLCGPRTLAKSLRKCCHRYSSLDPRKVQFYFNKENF

[16] = A Cell Based Secondary Assay To Explore Cytotoxicity of Compounds that Sensitize Mycobacterium Tuberculosis to Beta-Lactam Antibiotics.; type: functional
[17] = target: Epstein-Barr nuclear antigen 1 (Epstein-Barr virus (strain B95-8) (HHV-4) (Human herpesvirus 4), UniProt P03211); experiment: inhibition of EBV nuclear antigen 1 DNA binding – biochemical, fluorescence polarization, 1536-well, dose response (AID 2381); design: species or system human gammaherpesvirus 4;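 note: fluorescence polarization of a Cy5 DNA probe bound by EBNA-1 protein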
Sequence of Epstein-Barr nuclear antigen 1 (P03211 whole entry): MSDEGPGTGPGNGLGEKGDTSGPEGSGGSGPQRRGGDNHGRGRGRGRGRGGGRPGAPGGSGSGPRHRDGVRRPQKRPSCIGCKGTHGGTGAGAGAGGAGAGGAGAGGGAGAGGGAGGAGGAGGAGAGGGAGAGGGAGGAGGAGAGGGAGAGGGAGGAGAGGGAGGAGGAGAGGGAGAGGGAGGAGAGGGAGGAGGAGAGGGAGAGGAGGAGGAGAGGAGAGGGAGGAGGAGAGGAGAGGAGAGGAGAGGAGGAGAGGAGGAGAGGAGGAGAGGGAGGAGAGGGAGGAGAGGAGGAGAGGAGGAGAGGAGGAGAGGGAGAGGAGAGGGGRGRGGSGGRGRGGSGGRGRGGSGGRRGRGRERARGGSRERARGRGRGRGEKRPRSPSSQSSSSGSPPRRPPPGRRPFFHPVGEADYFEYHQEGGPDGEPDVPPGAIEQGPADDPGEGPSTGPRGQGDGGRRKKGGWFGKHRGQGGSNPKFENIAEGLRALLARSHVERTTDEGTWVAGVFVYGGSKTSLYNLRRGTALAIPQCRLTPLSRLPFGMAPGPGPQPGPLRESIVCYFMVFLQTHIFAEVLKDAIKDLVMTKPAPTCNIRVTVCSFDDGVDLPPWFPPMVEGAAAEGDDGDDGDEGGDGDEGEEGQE

[18] = target: Lytic switch protein BZLF1 (Epstein-Barr virus (strain B95-8) (HHV-4) (Human herpesvirus 4), UniProt P03206); experiment: inhibition of BZLF1 ZTA DNA binding – biochemical, fluorescence polarization, Epstein-Barr virus, 1536-well, counter-screen for EBNA-1 inhibitor project, dose response (AID 2377); design: species or system human gammaherpesvirus 4;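 note: fluorescence polarization of Cy5-labelled ZRE DNA probe bound by purified Zta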
Sequence of Lytic switch protein BZLF1 (P03206 whole entry): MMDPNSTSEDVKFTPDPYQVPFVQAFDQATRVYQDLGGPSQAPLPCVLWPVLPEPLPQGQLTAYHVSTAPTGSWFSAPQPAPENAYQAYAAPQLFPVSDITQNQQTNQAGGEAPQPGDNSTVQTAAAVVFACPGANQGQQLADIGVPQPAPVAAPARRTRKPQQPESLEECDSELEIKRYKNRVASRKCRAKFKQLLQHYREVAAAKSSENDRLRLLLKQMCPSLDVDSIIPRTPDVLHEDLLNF

[19] = target: Long-chain-fatty-acid--AMP ligase FadD28 (Mycobacterium tuberculosis, UniProt P9WQ59); experiment: Fluorescence polarization aasay to screen for inhibitors that compete for the binding of FadD28 to a bisubstrate Measured in Biochemical System Using Plate Reader - 2147-01_Inhibitor_Dose_CherryPick_Activity.; type: functional, Mycobacterium tuberculosis H37Rv
Sequence of Long-chain-fatty-acid--AMP ligase FadD28 (P9WQ59 whole entry): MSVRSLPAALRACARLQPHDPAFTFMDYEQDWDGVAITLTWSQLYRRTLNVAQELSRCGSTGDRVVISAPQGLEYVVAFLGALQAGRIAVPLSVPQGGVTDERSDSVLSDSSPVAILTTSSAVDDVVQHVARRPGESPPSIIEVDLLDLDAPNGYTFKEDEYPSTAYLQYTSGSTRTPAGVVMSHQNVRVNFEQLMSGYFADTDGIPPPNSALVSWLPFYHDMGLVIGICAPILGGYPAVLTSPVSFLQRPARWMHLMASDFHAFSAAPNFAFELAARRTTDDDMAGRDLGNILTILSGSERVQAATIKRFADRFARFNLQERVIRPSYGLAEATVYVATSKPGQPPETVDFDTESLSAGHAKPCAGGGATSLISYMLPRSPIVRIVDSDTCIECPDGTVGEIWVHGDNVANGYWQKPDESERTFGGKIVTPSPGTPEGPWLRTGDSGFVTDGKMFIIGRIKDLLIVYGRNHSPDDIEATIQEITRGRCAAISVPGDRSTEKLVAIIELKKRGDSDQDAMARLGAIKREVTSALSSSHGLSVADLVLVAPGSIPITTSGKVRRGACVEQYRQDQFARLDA

[20] = target: T5, Estrogen receptor (Homo sapiens, UniProt P03372);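 note: potency for inhibiting coactivator peptide recruitment to the receptor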
T5 sequence (P03372 whole entry): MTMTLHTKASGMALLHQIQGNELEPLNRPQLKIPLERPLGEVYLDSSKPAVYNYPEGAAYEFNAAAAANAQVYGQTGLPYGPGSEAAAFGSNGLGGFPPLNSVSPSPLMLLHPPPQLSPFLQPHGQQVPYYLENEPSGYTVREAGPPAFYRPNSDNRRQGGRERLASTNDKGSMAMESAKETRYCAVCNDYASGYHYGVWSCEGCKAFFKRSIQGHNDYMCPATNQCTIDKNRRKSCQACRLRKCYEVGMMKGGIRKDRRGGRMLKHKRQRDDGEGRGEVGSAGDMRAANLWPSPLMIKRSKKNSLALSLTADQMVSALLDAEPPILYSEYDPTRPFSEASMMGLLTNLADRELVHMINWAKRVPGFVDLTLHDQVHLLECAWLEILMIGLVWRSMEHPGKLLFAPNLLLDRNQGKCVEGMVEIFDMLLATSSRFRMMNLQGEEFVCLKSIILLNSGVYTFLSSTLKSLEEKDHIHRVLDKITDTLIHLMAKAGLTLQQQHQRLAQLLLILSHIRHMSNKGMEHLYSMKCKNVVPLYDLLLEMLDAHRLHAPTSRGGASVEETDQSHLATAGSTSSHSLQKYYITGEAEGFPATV

[21] = luciferase reporter signal suppression in cells – H4 neuroglioma cells, luminescence, dose response (AID 1990); type: functional, cell-based
[22] = target: T6, Mannose-6-phosphate isomerase (Homo sapiens, UniProt P34949); experiment: MPI enzyme activity inhibition – biochemical, fluorescence intensity, coupled assay, primary screen (AID 1209)
T6 sequence (P34949 whole entry): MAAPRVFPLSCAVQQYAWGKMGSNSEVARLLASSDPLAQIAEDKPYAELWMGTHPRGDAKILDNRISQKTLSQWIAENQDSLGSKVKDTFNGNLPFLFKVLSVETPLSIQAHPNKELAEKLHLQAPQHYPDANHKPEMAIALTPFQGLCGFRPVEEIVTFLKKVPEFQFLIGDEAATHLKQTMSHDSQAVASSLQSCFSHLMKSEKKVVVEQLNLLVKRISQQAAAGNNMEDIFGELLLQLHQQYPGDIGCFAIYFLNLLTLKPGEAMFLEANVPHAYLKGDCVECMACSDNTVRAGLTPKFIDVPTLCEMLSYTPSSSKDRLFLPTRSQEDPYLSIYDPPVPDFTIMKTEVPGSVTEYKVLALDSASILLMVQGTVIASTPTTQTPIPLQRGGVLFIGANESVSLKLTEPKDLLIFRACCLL

[23] = alpha-synuclein stem-loop luciferase translation blockers – H4 neuroglioma cells, luminescence, confirmation (AID 1988); type: functional, cell-based
[24] = Luminescence Cell-Based Dose Response HTS to Identify Inhibitors of 5'UTR Stem-Loop Driven Prion Protein mRNA Translation in H4 Neuroglioblastoma Cells. [Related pubchem assays: 1827 (Project Summary), 1813 (Primary HTS)]; type: functional
[25] = target: T6, Mannose-6-phosphate isomerase; experiment: MPI inhibition at elevated mannose 6-phosphate – biochemical, fluorescence intensity, high mannose 6-phosphate, primary screen (AID 1220)

Which EC50 [1] does the source give for Cc1cc2nc3n(c2cc1C)CCCN3 here?
The EC50 was > 60 µM (not active).

And the EC50 [2]?
Its EC50 is 0.121 µM (active).

And the EC50 [3]?
Its EC50 is < 0.1 µM (active).

Which results are given for COC(=O)CN(c1cc(Cl)ccc1OC)S(=O)(=O)c1ccc(C)cc1?
EC50 [4]: 3.49 µM (active); EC50 [5]: > 29.9 µM (not active)

For OCCN1CCN(CCCN2c3ccccc3Sc3ccc(C(F)(F)F)cc32)CC1, which IC50 [6] is on record?
Its IC50 is > 20 µM (inactive).

What about the EC50 [7] of the same molecule?
The EC50 was 9.66 µM (active).

What about the AC50 [8] of the same molecule?
The AC50 was 4.16 µM (active).

What about the EC50 [9] of the same molecule?
The EC50 was 8.41 µM (active).

What about the EC50 [10] of the same molecule?
Its EC50 is 8.4 µM (active).

And the AC50 [11]?
The AC50 was 12.7 µM (active).

And the EC50 [12]?
Its EC50 is 13.2 µM (active).

And the IC50 [13]?
The IC50 was 17.5 µM (active).

What about the IC50 [14] of the same molecule?
The IC50 was 17.3 µM (active).

For S=C(CCC(=S)Nc1ccc(Cl)cc1)Nc1ccc(Cl)cc1, which IC50 [15] is on record?
The IC50 was > 17 µM (not active).

With O=C(Oc1ccc(-c2nnco2)cc1)c1sc2ccccc2c1Cl as the molecule, how does the IC50 [15] read?
The IC50 was > 17 µM (not active).

For CCOC(=O)c1sc(NC(=O)CN2CCCC2)c(C(=O)OCC)c1C, which CC50 [16] is on record?
Its CC50 is > 40 µM (active).

Which IC50 [17] does the source give for O=C(Cn1cnc2ccccc2c1=O)Nc1nc2ccccc2s1 here?
The IC50 was 51.4 µM (not active).

What about the IC50 [18] of the same molecule?
Its IC50 is > 111 µM (not active).

Which EC50 [1] does the source give for CN(C)CCCN(C(=O)c1ccco1)c1nc2cc3c(cc2s1)OCO3 here?
Its EC50 is > 60 µM (not active).

And the EC50 [2]?
The EC50 was 0.213 µM (active).

What about the AC50 [11] of the same molecule?
The AC50 was 25.2 µM (active).

And the EC50 [3]?
Its EC50 is < 0.1 µM (active).

For CCCCCCCCNC(C)C(O)c1ccc(SC(C)C)cc1 (stereo not given), which EC50 [7] is on record?
Its EC50 is > 20 µM (not active).

What about the EC50 [9] of the same molecule?
Its EC50 is 11.3 µM (active).

And the EC50 [10]?
Its EC50 is 15.2 µM (active).

And the EC50 [12]?
The EC50 was > 20 µM (not active).

What about the AC50 [19] of the same molecule?
Its AC50 is 64.1 µM (active).

With COc1ccc(-n2c(SCC(=O)Nc3nccs3)nc3sc4c(c3c2=O)CCN(C)C4)cc1 as the molecule, how does the IC50 [20] read?
Its IC50 is 8.48 µM (active).

With O=Cc1cn(-c2ccccc2)nc1-c1cc2c(ccc3ccccc32)oc1=O as the molecule, how does the IC50 [20] read?
Its IC50 is 19.6 µM (active).

For Cc1ccccc1NCc1ccc(O)c2ncccc12, which EC50 [21] is on record?
Its EC50 is 11.2 µM (active).

And the IC50 [22]?
Its IC50 is 12.5 µM (active).

And the EC50 [23]?
The EC50 was 10.4 µM (active).

And the EC50 [24]?
The EC50 was > 120 µM (not active).

And the IC50 [25]?
Its IC50 is 11.5 µM (active).

For Cc1cc(C)cc(NC(=O)c2cc(Cl)sc2Cl)c1, which CC50 [16] is on record?
Its CC50 is > 20 µM (active).

What does the source list for COc1ccc(NC(S)=NN=C(S)Nc2cccc(C(F)(F)F)c2)cc1?
IC50 [17]: 6.7 µM (active); IC50 [18]: > 111 µM (not active)

What does the source list for Cc1cc(S(=O)(=O)N2CCCCCC2)c(Cl)cc1Cl?
EC50 [4]: > 29.9 µM (not active); EC50 [5]: > 29.9 µM (not active)
